Drawing on ChEMBL document CHEMBL2311430, “Sirtuins as emerging anti-parasitic targets” (Eur J Med Chem, 2013), this text covers IC50 for five compounds.

Structures are written as SMILES. Numbered stars: 1 amine (or outer) side, 2 acyl side, 3 side chain; on linkers, the order of the positions; unused ones are H or OH. Bridge positions count the residues as written; N and C are the ends. Square brackets hold non-standard residues; d marks the D form. Peptide text beside a SMILES is read from it. X1 = CC(C)CCCCCCCCC[C@H](CC(=O)[*:1])O[*:2]

The first assay addresses T1, Putative silent information regulator 2 (Leishmania infantum, UniProt A0A6L0XH39).
T1 sequence (A0A6L0XH39 whole entry): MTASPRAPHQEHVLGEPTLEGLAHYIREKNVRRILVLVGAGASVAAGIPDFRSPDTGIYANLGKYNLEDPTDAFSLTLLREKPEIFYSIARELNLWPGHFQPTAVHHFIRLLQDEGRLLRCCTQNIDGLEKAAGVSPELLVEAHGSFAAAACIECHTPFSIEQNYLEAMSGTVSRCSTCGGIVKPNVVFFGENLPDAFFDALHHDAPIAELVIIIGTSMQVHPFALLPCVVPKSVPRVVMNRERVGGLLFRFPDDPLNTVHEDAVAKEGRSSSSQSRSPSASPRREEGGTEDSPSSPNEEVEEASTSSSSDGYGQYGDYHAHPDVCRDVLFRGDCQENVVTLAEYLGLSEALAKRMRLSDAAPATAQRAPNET
The assay can be described thus: Inhibition of Leishmania infantum SIR2RP1.
`O=C1c2cccc3cccc(c23)C(=O)N1CCCNCCCCCCCCCNCCCN1C(=O)c2cccc3cccc(c23)C1=O` [BNIPDANON] gave a concentration for half-maximal inhibition (IC50) of 5.7 µM.

Turning to `CC(NC(=O)c1ccccc1/N=C/c1c(O)ccc2ccccc12)c1ccccc1` (stereo unspecified) [SIRTINOL], inhibition was half-maximal at 194 µM (IC50).

`O=C1c2cccc3cccc(c23)C(=O)N1CCCNCCCCCCCCNCCCN1C(=O)c2cccc3cccc(c23)C1=O` [BNIPDAOCT] registered a half-inhibitory concentration (IC50) of 9.2 µM.

`CC(C)CCCCCCCCC[C@@H]1CC(=O)N[C@@H](CCC(=O)O)C(=O)N[C@@H](CC(C)C)C(=O)N[C@H](CC(C)C)C(=O)N[C@@H](C(C)C)C(=O)N[C@@H](CC(=O)O)C(=O)N[C@H](CC(C)C)C(=O)N[C@@H](CC(C)C)C(=O)O1` [SURFACTIN] (EL[dL]VD[dL]L; linker N-C via X1) registered an IC50 of 35.2 µM.

In turn, `NC(=O)c1cccnc1` [NIACINAMIDE] displayed an IC50 of 39.4 µM.

Tested on in the next assay: not listed separately
The assay can be described thus: Inhibition of Plasmodium falciparum NAD-dependent protein deacetylase Sir2A.
For `NC(=O)c1cccnc1` [NIACINAMIDE], inhibition was half-maximal at 51.2 µM (IC50).
